Assay results as given in patent publication US8071605B2, “Piperidine compounds for use in the treatment of bacterial infections” (AstraZeneca AB, priority 2008, dated 2011).

biological target: S. aureus GyrB ATPase (Staphylococcus aureus, UniProt P0A0K8); assay: S. aureus GyrB ATPase inhibition (ammonium molybdate/malachite green phosphate detection); format: biochemical; details: compound concentration of 1 μM (unless otherwise noted)
Experimental: E. coli GyrB ATPase Inhibition Activity: Compounds can be tested for inhibition of E. coli GyrB ATPase activity using an ammonium molybdate/malachite green-based phosphate detection assay (Lanzetta, P. A., L. J. Alvarez, P. S. Reinach, and O. A. Candia, 1979, 100: 95-97). Assays can be performed in multiwell plates in 30 μl reactions containing: 50 mM Hepes buffer pH 7.5, 75 mM ammonium acetate, 8.0 mM magnesium chloride, 0.5 mM ethylenediaminetetraacetic acid, 5% glycerol, 1 mM 1,4-Dithio-DL-threitol, 200 nM bovine serum albumin, 1.6 μg/ml sheared salmon sperm DNA, 400 pM E. coli GyrA, 400 pM E. coli GyrB, 250 μM ATP, and compound in dimethylsulfoxide. Reactions can be quenched with 30 μl of ammonium molybdate/malachite green detection reagent containing 1.2 mM malachite green hydrochloride, 8.5 mM ammonium molybdate tetrahydrate, and 1 M hydrochloric acid. Plates can be read in an absorbance plate reader at 650 nm and percent inhibition values are calculated using dimethylsulfoxide (2%)-containing reactions as 0% inhibition and EDTA-containing (2.4 μM) reactions as 100% inhibition controls. An IC50 measurement of compound potency for each compound can be determined from reactions performed in the presence of 10 different compound concentrations. E. coli Topoisomerase IV ATPase Inhibition Activity: Compounds can be tested for inhibition of E. coli topoisomerase IV ATPase activity as described above for E. coli GyrB except the 30 μl reactions contained the following: 20 mM TRIS buffer pH 8, 50 mM ammonium acetate, 8 mM magnesium chloride, 5% glycerol, 5 mM 1,4-Dithio-DL-threitol, 0.005% Brij-35, 5 μg/ml sheared salmon sperm DNA, 500 pM E. coli ParC, 500 pM E. coli ParE, 160 μM ATP, and compound in dimethylsulfoxide. An IC50 measurement of compound potency for each compound can be determined from reactions performed in the presence of 10 different compound concentrations. S. aureus GyrB ATPase Inhibition Activity: Compounds may be tested for inhibition of S. aureus GyrB ATPase activity using an ammonium molybdate/malachite green-based phosphate detection assay (Lanzetta, P. A., L. J. Alvarez, P. S. Reinach, and O. A. Candia, 1979, 100: 95-97). Assays can be performed in multiwell plates in 30 μl reactions containing: 50 mM Hepes buffer pH 7.5, 75 mM ammonium acetate, 8.0 mM magnesium chloride, 0.5 mM ethylenediaminetetraacetic acid, 5% glycerol, 1.0 mM 1,4-Dithio-DL-threitol, 200 nM bovine serum albumin, 1.0 μg/ml sheared salmon sperm DNA, 250 pM E. coli GyrA, 250 pM S. aureus GyrB, 250 μM ATP, and compound in dimethylsulfoxide. Reactions can be quenched with 30 μl of ammonium molybdate/malachite green detection reagent containing 1.2 mM malachite green hydrochloride, 8.5 mM ammonium molybdate tetrahydrate, and 1 M hydrochloric acid. Plates can be read in an absorbance plate reader at 650 nm and percent inhibition values can be calculated using dimethylsulfoxide (2%)-containing reactions as 0% inhibition and EDTA-containing (2.4 μM) reactions as 100% inhibition controls. An IC50 measurement of compound potency for each compound can be determined from reactions performed in the presence of 10 different compound concentrations.
Compounds of the invention were tested in an assay substantially similar to the assay described above for measuring the inhibition of S. aureus GyrB ATPase. Percent inhibition of S. aureus GyrB ATPase at a compound concentration of 1 μM (unless otherwise noted) is disclosed in the following table: […]

Sequence of S. aureus GyrB ATPase (P0AES4 whole entry): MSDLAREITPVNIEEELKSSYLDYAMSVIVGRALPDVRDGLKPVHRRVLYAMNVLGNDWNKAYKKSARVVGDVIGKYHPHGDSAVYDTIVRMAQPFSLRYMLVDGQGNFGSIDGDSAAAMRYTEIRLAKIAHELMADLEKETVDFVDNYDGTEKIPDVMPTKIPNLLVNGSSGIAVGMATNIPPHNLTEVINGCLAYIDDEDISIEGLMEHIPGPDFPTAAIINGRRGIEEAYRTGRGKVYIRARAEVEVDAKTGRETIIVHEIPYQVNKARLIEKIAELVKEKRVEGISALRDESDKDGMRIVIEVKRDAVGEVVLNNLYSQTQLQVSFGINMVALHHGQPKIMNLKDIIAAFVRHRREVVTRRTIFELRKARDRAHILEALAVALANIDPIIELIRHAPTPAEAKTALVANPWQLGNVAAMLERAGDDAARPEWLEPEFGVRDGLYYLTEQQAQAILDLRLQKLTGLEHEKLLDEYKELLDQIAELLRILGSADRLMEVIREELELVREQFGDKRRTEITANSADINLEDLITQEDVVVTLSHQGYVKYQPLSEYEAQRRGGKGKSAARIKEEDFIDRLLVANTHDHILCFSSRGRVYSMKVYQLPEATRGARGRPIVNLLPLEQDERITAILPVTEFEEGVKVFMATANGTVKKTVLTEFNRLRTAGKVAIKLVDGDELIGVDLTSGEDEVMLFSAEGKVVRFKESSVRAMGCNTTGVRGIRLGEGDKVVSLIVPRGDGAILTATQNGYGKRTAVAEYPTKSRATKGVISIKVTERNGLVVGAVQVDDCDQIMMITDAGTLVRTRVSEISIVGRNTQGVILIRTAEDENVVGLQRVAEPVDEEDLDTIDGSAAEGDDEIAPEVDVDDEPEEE
Sequence of S. aureus GyrB ATPase (P0A0K8 whole entry): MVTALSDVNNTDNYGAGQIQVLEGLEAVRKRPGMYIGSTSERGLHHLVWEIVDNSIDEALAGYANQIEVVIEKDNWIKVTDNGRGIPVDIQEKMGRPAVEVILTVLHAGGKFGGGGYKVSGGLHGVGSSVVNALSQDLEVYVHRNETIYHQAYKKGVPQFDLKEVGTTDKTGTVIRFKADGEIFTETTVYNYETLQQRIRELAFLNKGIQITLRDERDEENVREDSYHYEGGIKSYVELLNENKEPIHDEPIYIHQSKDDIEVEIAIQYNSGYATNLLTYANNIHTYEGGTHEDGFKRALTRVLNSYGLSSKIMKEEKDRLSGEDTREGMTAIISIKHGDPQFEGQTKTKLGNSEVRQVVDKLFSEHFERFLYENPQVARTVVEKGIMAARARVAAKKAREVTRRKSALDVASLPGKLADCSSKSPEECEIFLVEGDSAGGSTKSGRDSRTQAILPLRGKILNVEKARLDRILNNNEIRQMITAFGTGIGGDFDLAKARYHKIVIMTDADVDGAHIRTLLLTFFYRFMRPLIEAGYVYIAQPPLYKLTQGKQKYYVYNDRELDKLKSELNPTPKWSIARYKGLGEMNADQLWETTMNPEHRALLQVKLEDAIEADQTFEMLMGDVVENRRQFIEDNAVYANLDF

SMILES	inhibition at 1 µM [%]
CCC(CC)N1CCN(c2cnc(-c3nc(N4CC[C@@H](NC(=O)c5[nH]c(C)c(Cl)c5Cl)[C@@H](OC)C4)sc3C(=O)O)cn2)CC1 [Example 137]	101
CCN1CCN(c2cnc(-c3nc(N4CC[C@@H](NC(=O)c5[nH]c(C)c(Cl)c5Cl)[C@@H](OC)C4)sc3C(=O)O)cn2)CC1 [Example 138]	103
CO[C@H]1CN(c2nc(-c3cnc(N4CCN[C@H](C)C4)cn3)c(C(=O)O)s2)CC[C@H]1NC(=O)c1[nH]c(C)c(Cl)c1Cl [Example 140]	107
CO[C@H]1CN(c2nc(-c3cnc(N4CCN(CCO)CC4)cn3)c(C(=O)O)s2)CC[C@H]1NC(=O)c1[nH]c(C)c(Cl)c1Cl [Example 141]	103
CO[C@H]1CN(c2nc(-c3cnc(N4CCN(CC5CCCO5)CC4)cn3)c(C(=O)O)s2)CC[C@H]1NC(=O)c1[nH]c(C)c(Cl)c1Cl (some centres unmarked) [Example 142]	103
CCN1CCN(c2cnc(-c3nc(N4CC[C@@H](NC(=O)c5[nH]c(C)c(Cl)c5Cl)[C@@H](C)C4)sc3C(=O)O)cn2)CC1 [Example 164, 2-[(3S,4R)-4-{[(3,4-dichloro-5-methyl-1H-pyrrol-2-yl)carbonyl]amino}-3-methylpiperidin-1-yl]-4-[5-(4-ethylpiperazin-1-yl)pyrazin-2-yl]-1,3-thiazole-5-carboxylic acid]	117
Cc1[nH]c(C(=O)N[C@@H]2CCN(c3nc(-c4cnc(N5CCCCC5)cn4)c(C(=O)O)s3)C[C@@H]2C)c(Cl)c1Cl [Example 165, 2-[(3S,4R)-4-{[(3,4-dichloro-5-methyl-1H-pyrrol-2-yl)carbonyl]amino}-3-methylpiperidin-1-yl]-4-[5-(piperidin-1-yl)pyrazin-2-yl]-1,3-thiazole-5-carboxylic acid]	107
Cc1[nH]c(C(=O)N[C@@H]2CCN(c3nc(-c4cnc(N5CCOCC5)cn4)c(C(=O)O)s3)C[C@@H]2C)c(Cl)c1Cl [Example 166, 2-[(3S,4R)-4-{[(3,4-dichloro-5-methyl-1H-pyrrol-2-yl)carbonyl]amino}-3-methylpiperidin-1-yl]-4-[5-(morpholin-4-yl)pyrazin-2-yl]-1,3-thiazole-5-carboxylic acid]	110
Cc1[nH]c(C(=O)N[C@@H]2CCN(c3nc(-c4cnc(N5CCN(C)CC5)cn4)c(C(=O)O)s3)C[C@@H]2C)c(Cl)c1Cl [Example 167, 2-[(3S,4R)-4-{[(3,4-dichloro-5-methyl-1H-pyrrol-2-yl)carbonyl]amino}-3-methylpiperidin-1-yl]-4-[5-(4-methylpiperazin-1-yl)pyrazin-2-yl]-1,3-thiazole-5-carboxylic acid]	113
Cc1[nH]c(C(=O)N[C@@H]2CCN(c3nc(-c4cnc(N5CCNCC5)cn4)c(C(=O)O)s3)C[C@@H]2C)c(Cl)c1Cl [Example 168, 2-[(3S,4R)-4-{[(3,4-dichloro-5-methyl-1H-pyrrol-2-yl)carbonyl]amino}-3-methylpiperidin-1-yl]-4-[5-(piperazin-1-yl)pyrazin-2-yl]-1,3-thiazole-5-carboxylic acid]	102
Cc1[nH]c(C(=O)N[C@@H]2CCN(c3nc(-c4cnc(NCCN5CCCC5=O)cn4)c(C(=O)O)s3)C[C@@H]2C)c(Cl)c1Cl [Example 169, 2-[(3S,4R)-4-{[(3,4-dichloro-5-methyl-1H-pyrrol-2-yl)carbonyl]amino}-3-methylpiperidin-1-yl]-4-(5-{[2-(2-oxopyrrolidin-1-yl)ethyl]amino}pyrazin-2-yl)-1,3-thiazole-5-carboxylic acid]	102
COCCNc1cnc(-c2nc(N3CC[C@@H](NC(=O)c4[nH]c(C)c(Cl)c4Cl)[C@@H](C)C3)sc2C(=O)O)cn1 [Example 170, 2-[(3S,4R)-4-{[(3,4-dichloro-5-methyl-1H-pyrrol-2-yl)carbonyl]amino}-3-methylpiperidin-1-yl]-4-{5-[(2-methoxyethyl)amino]pyrazin-2-yl}-1,3-thiazole-5-carboxylic acid]	119
Cc1[nH]c(C(=O)N[C@@H]2CCN(c3nc(-c4cnc(NCCN5CCOCC5)cn4)c(C(=O)O)s3)C[C@@H]2C)c(Cl)c1Cl [Example 171, 2-[(3S,4R)-4-{[(3,4-dichloro-5-methyl-1H-pyrrol-2-yl)carbonyl]amino}-3-methylpiperidin-1-yl]-4-(5-{[2-(morpholin-4-yl)ethyl]amino}pyrazin-2-yl)-1,3-thiazole-5-carboxylic acid]	101
COCC(COC)Nc1cnc(-c2nc(N3CC[C@@H](NC(=O)c4[nH]c(C)c(Cl)c4Cl)[C@@H](C)C3)sc2C(=O)O)cn1 [Example 172, 2-[(3S,4R)-4-{[(3,4-dichloro-5-methyl-1H-pyrrol-2-yl)carbonyl]amino}-3-methylpiperidin-1-yl]-4-{5-[(1,3-dimethoxypropan-2-yl)amino]pyrazin-2-yl}-1,3-thiazole-5-carboxylic acid]	109
Cc1[nH]c(C(=O)N[C@@H]2CCN(c3nc(-c4cnc(NCCN5CCNC5=O)cn4)c(C(=O)O)s3)C[C@@H]2C)c(Cl)c1Cl [Example 173, 2-[(3S,4R)-4-{[(3,4-dichloro-5-methyl-1H-pyrrol-2-yl)carbonyl]amino}-3-methylpiperidin-1-yl]-4-(5-{[2-(2-oxoimidazolidin-1-yl)ethyl]amino}pyrazin-2-yl)-1,3-thiazole-5-carboxylic acid]	104
Cc1[nH]c(C(=O)N[C@@H]2CCN(c3nc(-c4cnc(NCCN(C)C)cn4)c(C(=O)O)s3)C[C@@H]2C)c(Cl)c1Cl [Example 174, 2-[(3S,4R)-4-{[(3,4-dichloro-5-methyl-1H-pyrrol-2-yl)carbonyl]amino}-3-methylpiperidin-1-yl]-4-(5-{[2-(dimethylamino)ethyl]amino}pyrazin-2-yl)-1,3-thiazole-5-carboxylic acid]	102
Cc1[nH]c(C(=O)N[C@@H]2CCN(c3nc(-c4cnc(NCCN5CCN(C)CC5)cn4)c(C(=O)O)s3)C[C@@H]2C)c(Cl)c1Cl [Example 175, 2-[(3S,4R)-4-{[(3,4-dichloro-5-methyl-1H-pyrrol-2-yl)carbonyl]amino}-3-methylpiperidin-1-yl]-4-(5-{[2-(4-methylpiperazin-1-yl)ethyl]amino}pyrazin-2-yl)-1,3-thiazole-5-carboxylic acid]	106
Cc1[nH]c(C(=O)N[C@@H]2CCN(c3nc(-c4cnc(N5CCN(CC(C)C)CC5)cn4)c(C(=O)O)s3)C[C@@H]2C)c(Cl)c1Cl [Example 176, 2-[(3S,4R)-4-{[(3,4-dichloro-5-methyl-1H-pyrrol-2-yl)carbonyl]amino}-3-methylpiperidin-1-yl]-4-{5-[4-(2-methylpropyl)piperazin-1-yl]pyrazin-2-yl}-1,3-thiazole-5-carboxylic acid]	108
Cc1[nH]c(C(=O)N[C@@H]2CCN(c3nc(-c4cnc(N5CCN(CC6CCCN(C)C6)CC5)cn4)c(C(=O)O)s3)C[C@@H]2C)c(Cl)c1Cl (stereo partly drawn) [Example 177, 2-[(3S,4R)-4-{[(3,4-dichloro-5-methyl-1H-pyrrol-2-yl)carbonyl]amino}-3-methylpiperidin-1-yl]-4-(5-{4-[(1-methylpiperidin-3-yl)methyl]piperazin-1-yl}pyrazin-2-yl)-1,3-thiazole-5-carboxylic acid]	107
Cc1[nH]c(C(=O)N[C@@H]2CCN(c3nc(-c4cnc(N5CCN(CC6CCCCC6)CC5)cn4)c(C(=O)O)s3)C[C@@H]2C)c(Cl)c1Cl [Example 178, 4-{5-[4-(cyclohexylmethyl)piperazin-1-yl]pyrazin-2-yl}-2-[(3S,4R)-4-{[(3,4-dichloro-5-methyl-1H-pyrrol-2-yl)carbonyl]amino}-3-methylpiperidin-1-yl]-1,3-thiazole-5-carboxylic acid]	102
